A word on the IC50: it is the concentration needed to halve the response being measured.

This note sets out measurements from ChEMBL document CHEMBL1152336, “Characterization of the tautomycetin biosynthetic gene cluster from Streptomyces griseochromogenes provides new insight into dialkylmaleic anhydride biosynthesis” (J Nat Prod, 2009).

SMILES strings stand for the structures.

Assay [1] in a line: Selectivity ratio of IC50 for PP2A over IC50 for PP1.
The nature of assay [2]: Inhibition of PP1.
Assay [3] in a line: Inhibition of PP2A.

Consider `C=C/C(=C/C(=O)C[C@H](C)C[C@@H](C)CC[C@H](O)[C@H](C)C(=O)C[C@@H](O)[C@H](C)[C@@H](C)OC(=O)C[C@@H](C)C1=C(C)C(=O)OC1=O)CC` [TAUTOMYCETIN], for which the Ratio IC50 in assay [1] is 40.

Consider `CO[C@H]([C@H](O)CC(=O)[C@@H](C)[C@@H](O)CC[C@@H](C)[C@@H]1O[C@]2(CC[C@@H](C)[C@H](CC[C@H](C)C(C)=O)O2)CC[C@@H]1C)[C@H](OC(=O)C[C@@H](O)C1=C(C)C(=O)OC1=O)C(C)C` [TAUTOMYCIN], for which the half-maximal inhibitory concentration (IC50) in assay [2] and in assay [3] was 22 nM in each case.
